Assay type in all cases: cell-based
The test system of assay [1] is Staphylococcus aureus X1.1. The experiment in a line: In vitro antibacterial activity, standard agar-dilution assay. The conditions noted are these: Staphylococcus aureus X1.1; agar dilution; read-out: MIC. (In general: Agar dilution tests growth on a series of plates holding different concentrations.)
Assay [2] concerns Staphylococcus aureus V41. Described as above. The conditions noted are these: Staphylococcus aureus V41; agar dilution; read-out: MIC.
Assay [3] deals with Staphylococcus aureus X400. The experiment in a line: microbe, parasite or virus in culture.
Assay [4] relates to Staphylococcus aureus S13E. The experiment in a line: microbe, parasite or virus in culture.
Assay [5] deals with Staphylococcus epidermidis EPI1. The experiment in a line: In vitro antibacterial activity, standard agar-dilution assay. The conditions noted are these: Staphylococcus epidermidis EPI1; agar dilution; read-out: MIC.
Assay [6] has as its system Staphylococcus epidermidis 222. Described as above. The note with it: Staphylococcus epidermidis 222; agar dilution; read-out: MIC.
Assay [7] has as its system Streptococcus pyogenes C203. The assay is described as above. The note with it: Streptococcus pyogenes C203; agar dilution; read-out: MIC.
Assay [8] deals with Streptococcus pneumoniae Park 1. Described as above. The note with it: PARK1; Streptococcus pneumoniae Park 1; agar dilution; read-out: MIC.
In assay [9] the test system is Streptococcus faecium ATCC 9790. The description is as above. The note with it: Enterococcus faecium, ATCC9790; Streptococcus faecium ATCC 9790; agar dilution; read-out: MIC.
Assay [10] concerns Streptococcus sp group D 2041. Described as above. The conditions noted are these: GROUPD2041; Streptococcus sp group D 2041; agar dilution; read-out: MIC.
In assay [11] the test system is Haemophilus influenzae C.L. The assay is described as above. The note with it: Haemophilus influenzae C.L.; agar dilution; read-out: MIC.
In assay [12] the test system is Haemophilus influenzae 76. Described as above. The note with it: Haemophilus influenzae 76; agar dilution; read-out: MIC.
The test system of a further assay is Escherichia coli N10. The description is as above. The note with it: Escherichia coli N10; agar dilution; read-out: MIC.
For a further assay, the system named is Escherichia coli EC14. Described as above. The conditions noted are these: Escherichia coli EC14; agar dilution; read-out: MIC.
Another assay deals with Escherichia coli TEM. Described as above.
Assay [13] has as its system Klebsiella pneumoniae X26. Described as above. The note with it: Klebsiella pneumoniae X26; agar dilution; read-out: MIC.
In assay [14] the test system is Klebsiella pneumoniae X68. The description is as above. The conditions noted are these: Klebsiella pneumoniae X68; agar dilution; read-out: MIC.
The subject of assay [15] is Klebsiella pneumoniae KAE. The assay is described as above. The conditions noted are these: Klebsiella pneumoniae KAE; agar dilution; read-out: MIC.
Another assay has as its system Salmonella sp. X514. The assay is described as above. The note with it: Salmonella sp. X514; agar dilution; read-out: MIC.
A further assay concerns Shigella sonnei N9. Described as above. The note with it: Shigella sonnei N9; agar dilution; read-out: MIC.
The test system of another assay is Proteus morganii PR15. The description is as above. The note with it: Morganella morganii; Proteus morganii PR15; agar dilution; read-out: MIC.
For assay [16], the system named is Acinetobacter calcoaceticus AC12. The assay is described as above. The conditions noted are these: Acinetobacter calcoaceticus AC12; agar dilution; read-out: MIC.
The next assay has as its system Candida albicans. Description: In vitro antifungal activity, standard disc-plate assay. The conditions noted are these: disc-plate assay, read-out: MIC.
The subject of assay [17] is Trichophyton mentagrophytes. The description is as above. The note with it: disc-plate assay, read-out: MIC.

Values after ≈ are worked out from the molar mass of the structure shown. Some results are limits rather than exact numbers.

For `[C-]#[N+][C@@H]1[C@H]2c3c[nH]c4cccc(c34)C(C)(C)[C@@H]2CC[C@]1(C)C=C` [Compound 8, Hapalindole H], the MIC was > 64 µg/mL in assay [1]; > 64 µg/mL in assay [2]; > 64 µg/mL in [3]; > 64 µg/mL in assay [4]; 32 µg/mL (≈ 105 µM) in assay [5]; 32 µg/mL (≈ 105 µM) in assay [6]. Moreover, the MIC was 32 µg/mL (≈ 105 µM) in assay [7]; 32 µg/mL (≈ 105 µM) in assay [8]; > 64 µg/mL in assay [9]; > 64 µg/mL in [10]; > 64 µg/mL in assay [11]; > 64 µg/mL in assay [12]. For the same compound, the MIC (in the assay with Escherichia coli N10; with Escherichia coli EC14; against Escherichia coli TEM; in [13]; in assay [14]; in assay [15]) was > 64 µg/mL in each case. For the same compound, the MIC is > 64 µg/mL with Salmonella sp. X514; > 64 µg/mL in the assay on Shigella sonnei N9; > 64 µg/mL in the assay on Proteus morganii PR15; 16 µg/mL (≈ 52.6 µM) in [16]; 10 µg/mL (≈ 32.8 µM) in the assay with Candida albicans; 1.25 µg/mL (≈ 4.11 µM) in [17].

(Values after patent US4755610A, “Hapalindoles” (priority 1986, dated 1988).)
